Laboratory results as given in PubChem BioAssay (NCI).
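Where inhibition never reached the appropriate level, the endpoint shown equals the highest concentration tested. Otherwise, values were interpolated linearly from a five-concentration, 48-hour dose response in 96-well plates. TGI marks complete inhibition of growth.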 Where a SMILES comes first, the peptide text is derived from it. The star is where a group is joined. Boc = CC(C)(C)OC(=O)*; OSu = O=C1CCC(=O)N1O*

Legend:
Experiment in all cases: NCI anticancer screen, dose series, 48 h
COLO 205 colon = system: COLO 205 colon
IGROV1 ovarian = system: IGROV1 ovarian
NCI-H460 lung = system: NCI-H460 lung
NCI/ADR-RES ovarian = system: NCI/ADR-RES ovarian
SF-268 CNS = system: SF-268 CNS
SK-MEL-28 melanoma = system: SK-MEL-28 melanoma
UACC-257 melanoma = system: UACC-257 melanoma
UACC-62 melanoma = system: UACC-62 melanoma
PC-3 prostate = system: PC-3 prostate
HOP-92 NSCLC = system: HOP-92 NSCLC

Row | Structure (SMILES) | TGI (COLO 205 colon) [µM] | TGI (IGROV1 ovarian) [µM] | TGI (NCI-H460 lung) [µM] | TGI (NCI/ADR-RES ovarian) [µM] | TGI (SF-268 CNS) [µM] | TGI (SK-MEL-28 melanoma) [µM] | TGI (UACC-257 melanoma) [µM] | TGI (UACC-62 melanoma) [µM] | TGI (PC-3 prostate) [µM] | TGI (HOP-92 NSCLC) [µM]
1 | c1ccc([P+](CCNCCNCC[P+](c2ccccc2)(c2ccccc2)c2ccccc2)(c2ccccc2)c2ccccc2)cc1 | > 100 | > 100 | > 100 | > 100 | > 100 | > 100 | > 100 | > 100 |  | 
2 | CC1(C)CC2(C)CC1CC2O (stereo unspecified) | > 100 | > 100 |  | > 100 | > 100 | > 100 | > 100 | > 100 | > 100 | 
3 | CCOC(=O)c1cc(C2(O)CCN(Cc3ccccc3)C2=O)c(-c2cc(C)no2)[nH]1 (stereo unspecified) | > 100 | > 100 | > 100 | > 100 | > 100 | > 100 | > 100 | > 100 | > 100 | 
4 | O=C1CC2(C[C@@H]3CCCCCCCCC[C@@H](C3)C2)N1 (stereo partly specified) | 30.7 | 27.9 | 38.4 |  | 39.8 | 31.5 | 25.1 | 30.3 |  | 23
5 | N#CCCN(c1ccc(C=Nc2cccc([N+](=O)[O-])c2)cc1)S(=O)(=O)c1ccccc1 | > 100 | > 100 |  |  | > 100 | > 100 | > 100 | > 100 |  | > 100
6 | CCOC(=O)c1c(NC(=O)c2ccccc2)sc2c1CCCC2 | > 100 | > 100 |  | > 100 | > 100 | > 100 | > 100 | > 100 | > 100 | 
7 | COc1ccc2nc(-c3ccc(OCc4ccccc4)cc3)ccc2c1 | > 100 | > 100 | > 100 |  | > 100 | > 100 | > 100 | > 100 |  | > 100
8 | O=c1[nH]cnc2c(C3OC(CO)C(O)C3O)c[nH]c12 (stereo unspecified) | > 100 | > 100 | > 100 |  | > 100 | > 100 | > 100 | > 100 | > 100 | > 100
9 | CC1C(c2cc(C(C)(C)C)c(O)c(C(C)(C)C)c2)c2cc3c(cc2OC1N1CCOCC1)OCO3 (stereo unspecified) | > 100 | > 100 | 87 | 87.4 | 77.3 | 40.5 | > 100 | 72.9 | 31.6 | 
10 | COC1O[C@H]2CCN(C(=O)OCc3ccccc3)[C@H]2[C@H]1OCc1ccccc1 (stereo partly specified) | > 100 | > 100 | > 100 |  | > 100 | > 100 | > 100 | 64.4 |  | > 86
11 | Cc1ccc(S(=O)(=O)N2CCN3C(=O)c4ccccc4C32c2ccc(F)cc2)cc1 (stereo unspecified) | > 100 | > 100 | > 100 | > 100 | > 100 | > 100 | > 100 | > 100 | > 100 | 
12 | Cc1cc2c(c(C(=O)NCCC(=O)O)c1)Oc1c(cc(C)cc1C(=O)NCCC(=O)O)S2 | > 100 | > 100 |  | > 100 | > 100 | > 100 | > 100 | > 100 | > 100 | > 100
13 | CC12CC(c3ccccc3O1)C(C(=O)Nc1ccc(F)cc1)C(=O)N2 (stereo unspecified) | > 100 | > 100 | > 100 | > 100 | > 100 | > 100 | > 100 | > 100 | > 100 | 
14 | O=C1CC2C=CC(O)C(C1)C2 (stereo unspecified) | > 100 | > 100 | > 100 | > 100 | > 100 | > 100 | > 100 | > 100 | > 100 | 
15 | O=C1O[C@@H](c2ccccc2)C[C@@H]1CN1CCOCC1 | > 100 | > 100 | > 100 |  | > 100 | > 100 | > 100 | > 100 |  | > 100
16 | O=C1CCCN(c2ccccc2)N1 |  | > 100 | > 100 |  | > 100 | > 100 | > 100 | > 100 |  | 
17 | O=C1CC(O)c2c1csc2Br (stereo unspecified) | 59.9 | 35.9 | > 100 | 49 | 88.6 | 45.1 | 31.4 | 59 | > 100 | 
18 | Cc1c(Cl)cccc1NC(=O)C(=O)C1C(=O)CC(C)(C)CC1=O | > 100 | > 100 | > 100 |  | > 100 | > 100 | > 100 | > 100 |  | > 100
19 | c1ccc(C[P+]2(c3ccccc3)c3ccccc3-c3ccccc32)cc1 | > 100 | > 100 |  |  | > 100 | > 100 | > 100 | > 100 | > 100 | > 100

Row | Structure (SMILES) | TGI (COLO 205 colon) [µM] | TGI (IGROV1 ovarian) [µM] | TGI (NCI-H460 lung) [µM] | TGI (NCI/ADR-RES ovarian) [µM] | TGI (SF-268 CNS) [µM] | TGI (SK-MEL-28 melanoma) [µM] | TGI (UACC-257 melanoma) [µM] | TGI (UACC-62 melanoma) [µM] | TGI (PC-3 prostate) [µM] | TGI (HOP-92 NSCLC) [µM]
20 | CC(C)C(Sc1nc(-c2ccccc2)c(-c2ccccc2)[nH]1)C(=O)NNC(=S)Nc1ccccc1 (stereo unspecified) | 35.9 | 35.7 | 33.9 |  | 46.5 | 41.1 | 33.5 | 12.4 |  | 34.3
21 | C[N+](C)(C)CC(=O)N/N=c1\cc(C(=O)Nc2ccc(N=O)cc2C#N)oc2cc(O)ccc12 | > 100 | > 100 | > 100 |  | > 100 | > 100 | > 100 | > 100 |  | > 100
22 | COC1(C)CC2N(C(=O)c3ccccc3)N=C(c3ccccc3)CC2(C)O1 (stereo unspecified) |  | > 100 | > 100 |  | > 100 |  | > 100 | > 100 |  | > 100
23 | CCCCc1c(O)nc(Nc2nc3ccccc3[nH]2)[nH]c1=O | > 100 | > 100 | > 100 | > 100 | > 100 | > 100 | > 100 | > 100 | > 100 | 
24 | COC(=O)c1cc(CC(C)C)c2c(c1)[nH]c1ccccc12 | > 100 | > 100 | > 100 |  | > 100 | > 100 |  | > 100 |  | > 100
25 | O=C1CC(c2ccco2)C2(C(=O)NC(=O)NC2=O)C(c2ccco2)C1 (stereo unspecified) | > 75 | > 75 | > 75 | > 75 | > 75 | > 75 | > 75 | > 75 | > 75 | 
26 | COc1ccc(/C(=C/n2ccnc2)C(=O)c2ccc(OC)c(OC)c2)cc1 | > 100 |  | > 100 |  | > 100 | > 100 | > 100 | > 100 |  | > 100
27 | CC(C)=CCN1CC(C)C(=O)Nc2cc(Cl)ccc21 (stereo unspecified) | 41.9 | 81.9 | 40.7 |  | > 100 | > 100 | 36 |  | 47.5 | 29
28 | Cc1cc(=O)cc2sc3c(C)cccc3nc1-2 | 32.6 | 54.9 | 57.6 |  | 26.3 | > 100 | > 100 |  |  | 85.9
29 | COC(=O)C(C#N)=C1c2ccccc2Oc2ccccc21 | > 100 | > 100 | > 100 |  | > 100 | > 100 | > 100 | > 100 |  | 87.6
30 | O=C1NC(c2ccc(O)cc2)C2CCC1C2 (stereo unspecified) | > 100 | > 100 | > 100 |  | > 100 | > 100 | > 100 | > 100 |  | > 100
31 | CCCN=C1CC(C)Nc2ccccc2N1 (stereo unspecified) | > 100 | > 100 | > 100 | > 100 | > 100 | > 100 | > 100 | > 100 | > 100 | 
32 | O=c1[nH]c2nc3ccccc3c(=O)n2/c1=C/c1ccc(O)cc1 | > 100 | > 100 |  | > 100 | > 100 | > 100 | > 100 | > 100 | > 100 | > 100
33 | O=C(/C=C/c1ccccc1)/C=C/c1ccccc1O | 31.1 | 35.7 | 39.7 |  | 79.4 | 81 | 44.3 | 38.8 |  | > 100
34 | CCOP(=O)(OCC)[C@H](O)c1ccsc1 | > 100 | > 100 | > 100 | > 100 | > 100 | > 100 | > 100 | > 100 | > 100 | 
35 | COc1ccc(C2C(Cl)C(=O)N2NC(=O)c2ccc(NC(C)=O)cc2)cc1 (stereo unspecified) | > 100 | > 100 | > 100 |  | > 100 | > 100 | > 100 | > 100 |  | > 100
36 | COc1ccc(-c2c(C#N)c(N)n(C3OC(CO)C(O)C(O)C3O)c(=S)c2C#N)cc1 (stereo unspecified) |  | > 100 | > 100 |  | > 100 | > 100 | > 100 | > 100 | > 100 | > 100
37 | CC(C)(C)OC(=O)NC(Cc1ccc(O)cc1)C(=O)NC(CCCCN)C(=O)NC(Cc1ccc(O)cc1)C(=O)NC(CCCCN)C(=O)ON1C(=O)CCC1=O (stereo unspecified) (Boc-YKYK-OSu; configuration not given here) | > 100 | > 100 | > 100 |  |  | > 100 | > 100 | > 100 | > 100 | > 100
